Results as given in patent publication US10669267B2, “Substituted N-[2-(4-phenoxypiperidin-1-yl)-2-(1,3-thiazol-5-yl)ethyl]benzamide and N-[2-(4-benzyloxypiperidin-1-yl)-2-(1,3-thiazol-5-yl)ethyl]benzamide derivatives P2X7 receptor antagonists” (Axxam S.P.A., priority 2016, dated 2020).
Read-outs that look alike come from different tables or passages of the source.

Legend:
human P2X7 channel = human P2X7 channel (Homo sapiens (Human), UniProt Q99572); test: human P2X7 channel assay by automated patch-clamp (QPatch16X), BzATP-evoked current; type: cell-based; settings: HEK-293 cells expressing P2X7, whole-cell voltage clamp, 100 microM BzATP, holding -80 mV; read-out: hP2X7 (IC50; nM)
Chain of human P2X7 channel (Q99572 whole entry): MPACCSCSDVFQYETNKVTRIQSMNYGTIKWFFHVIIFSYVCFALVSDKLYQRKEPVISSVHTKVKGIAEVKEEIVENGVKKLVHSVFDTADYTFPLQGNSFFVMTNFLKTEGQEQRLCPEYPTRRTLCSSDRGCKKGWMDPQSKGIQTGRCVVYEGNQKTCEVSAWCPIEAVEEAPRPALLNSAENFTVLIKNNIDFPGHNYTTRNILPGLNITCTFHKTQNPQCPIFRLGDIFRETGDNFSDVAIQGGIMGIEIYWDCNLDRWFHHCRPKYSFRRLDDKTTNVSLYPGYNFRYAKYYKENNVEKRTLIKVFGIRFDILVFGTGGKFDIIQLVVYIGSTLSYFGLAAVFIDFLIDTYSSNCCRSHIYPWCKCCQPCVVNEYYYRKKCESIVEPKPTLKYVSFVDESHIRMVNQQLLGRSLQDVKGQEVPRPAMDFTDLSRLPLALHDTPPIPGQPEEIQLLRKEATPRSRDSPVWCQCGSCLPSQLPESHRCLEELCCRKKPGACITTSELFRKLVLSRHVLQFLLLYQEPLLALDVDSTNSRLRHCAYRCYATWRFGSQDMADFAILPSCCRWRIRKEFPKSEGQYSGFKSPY
Description: In order to directly monitor the block of P2X7 channel, an electrophysiological assay was developed and implemented on the QPatch16X automated electrophysiology instrument.
HEK-293 cells expressing the P2X7 channels were cultured in modified EMEM.
72 hours before experiment, 5 million cells were seeded onto T225 flasks. Just before the experiment cells were washed twice, detached from the flask with trypsin-EDTA, re-suspended in the suspension solution and placed on the QPatch 16x.
The compounds (20 mM in a 100% DMSO) stored at −20° C. were prepared the day of the experiment (a first dilution 1:20 in 100% DMSO to prepare a 1 mM stock solution, then a 1 microM solution in external solution+a serial dilution 1:10).
The standard whole-cell voltage clamp experiments were performed at room temperature. For these experiments the multihole technology was used and the data were sampled at 2 KHz.
After establishment of the seal and the passage in the whole cell configuration, the cells were held at −80 mV. The P2XR7 current was evoked by applying 100 microM of BzATP alone (4 times) and then in the presence increasing concentrations of the compound under investigation (1, 10, 100 and 1000 nM).
The pre-incubation periods 5 to 8 contain increasing concentrations of the compound of interest (1, 10, 100 and 1000 nM), as illustrated in FIGURE.
The maximal inward current evoked by BzATP in absence or presence of increasing concentrations of the compounds under investigation was measured and normalized.
Y: normalized response, 100% down to 0%, decreasing as X increases.
LogIC50: same log units as X
HillSlope: slope factor or HS, unitless

rat P2X7R = rat P2X7R (Rattus norvegicus (Rat), UniProt Q64663); test: rat P2X7 Ca2+ influx, Screen Quest Fluo-8 No Wash Calcium Assay Kit (FLIPR TETRA); type: cell-based; settings: read-out: rP2X7 (IC50; nM)
Chain of rat P2X7R (Q64663 whole entry): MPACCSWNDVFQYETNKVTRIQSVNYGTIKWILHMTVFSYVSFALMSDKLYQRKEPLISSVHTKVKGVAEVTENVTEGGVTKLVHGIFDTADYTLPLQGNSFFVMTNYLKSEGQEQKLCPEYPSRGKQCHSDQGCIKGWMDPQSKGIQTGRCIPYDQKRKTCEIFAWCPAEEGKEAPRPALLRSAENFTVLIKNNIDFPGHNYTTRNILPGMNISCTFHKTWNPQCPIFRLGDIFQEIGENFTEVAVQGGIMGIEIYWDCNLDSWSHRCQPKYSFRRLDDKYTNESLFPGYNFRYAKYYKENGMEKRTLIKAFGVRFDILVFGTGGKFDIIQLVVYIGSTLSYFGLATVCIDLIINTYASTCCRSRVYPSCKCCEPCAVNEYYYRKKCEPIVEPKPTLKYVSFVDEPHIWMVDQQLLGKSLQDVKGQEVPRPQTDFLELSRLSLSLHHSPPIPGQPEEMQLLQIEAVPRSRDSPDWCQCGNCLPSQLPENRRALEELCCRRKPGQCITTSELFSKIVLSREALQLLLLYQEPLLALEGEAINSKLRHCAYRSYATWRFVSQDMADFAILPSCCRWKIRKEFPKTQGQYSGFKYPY
Description: Ca^2+ influx was measured in HEK-293 cells stably transfected with the receptor using Screen Quest™ Fluo-8 No Wash Calcium Assay Kit (AAt Bioquest®). Briefly, once inside the cells, the lipophilic blocking groups of Fluo-8 are cleaved by non-specific cell esterases, resulting in a negatively-charged fluorescent-dye that stays inside cells. Its fluorescence increases upon binding to calcium. When HEK-293/P2X7 cells were stimulated with BzATP, Ca^2+ entered the cells and the fluorescence of Fluo-8 NW increaseed.
To routinely test the compounds, HEK-293 cells stably transfected with rat P2X7R were seeded overnight in growth medium at 10000, 15000 or 20000 cells/well in 384-well plate, according to the level of response after thawing. 24 hours later, the medium was removed and the cells were pre-loaded at RT for 1 hour with 20 μL/w of Fluo-8 NW prepared in Tyrode 0.3 mM Ca^2+/Mg^2+-free.
Compounds were tested at […] according to the following method: • first injection at […] of 10 μL of 3× test compound (in Tyrode's buffer 0.3 mM Ca^2+/Mg^2+-free+DMSO 0.5% final concentration) • 5′ incubation • second injection at […] of 15 µL of 3× BzATP at ˜ECK) (in Tyrode's buffer 0.3 mM Ca^2+/Mg^2+-free+BSA 0.0003% final concentration) • Fluorescence recording for 3′
Between one plate and the following, tips were extensively washed with water, then with 100% DMSO and finally with water to avoid carry-over inside the tips.
The effect of the test compounds was measured as percent inhibition vs a reference antagonist and IC50 values were calculated accordingly.

[1] = metabolic stability using Human liver Microsomes; type: in vitro ADME; set-up: unit not given here; settings: 1 μM test compound, 1 mg/mL protein, pH 7.4, 0-60 min
Description: In vitro evaluation of test compounds for metabolic stability using Human liver
Test System Human (Mouse) Liver Microsomes
Test compound concentration: 1μM
Time Points: 0, 5, 10, 30 and 60 minutes
Final Protein concentration: 1 mg/mL
Number of Replicates: Two
Potassium Phosphate Buffer pH 7.4 100 mM
End Point: % Remaining of Test compound, Half life, Clint
Preparation and Dilution of Test Compound:
10 mM stock solution of test compound were prepared in DMSO and dilute with water: acetonitrile (1:1) to a concentration of 1 mM. Working concentration of 100 μM were prepared by further dilution with water: acetonitrile (1: 1).
Preparation of Potassium Phosphate buffer pH 7.4:
100 mL of Milli Q water will be added to K2HPO4 (1.398 g) and KH2PO4 (0.27 g) to get final pH 7.4.
Preincubation mixture: 2.5 μL Test Cpd.+75 μL Liver microsomes@3.33 mg/mL+85 μL of 100 mM potassium phosphate buffer (Preincubate for 10 min @37° C.)
60 min w/o cofactor: 32.5 μL of Preincubation mixture+17.5 μL of 100 mM potassium phosphate buffer (Incubate for 60 min@37° C.)
0 min sample: 16.25 μL of Preincubation mixture+200 μL of acetonitrile containing internal standard+8.75 μL of cofactor Incubation mixture 62 μL of cofactor (2.5 mM)+Remaining incubation mixture (Incubated for 60 min@37° C.).
Sample preparation: 25 μL incubation mixture+200 μL of acetonitrile containing internal standard+Vortex 5 min@1200 rpm+Centrifuge 10 min@4000 rpm. Dilute supernatant 2 fold with water and injected on LC-MS/MS.
Bioanalysis: LC-MS/MS method LC generic gradient conditions will be used and the details will be provided in the report.

[2] = Table 4, HEK-293 cells stably transfected with rat P2X7R, BzATP stimulation
[3] = Table 5, comparison with Compound 59 of WO2015118019

| Compound | IC50 (human P2X7 channel) | IC50 (rat P2X7R; [2]) | Human Liver Microsomal Clearance (CLi; μg/min/mg protein) [1] | IC50 (rat P2X7R; [3]) |
| --- | --- | --- | --- | --- |
| Cc1ncsc1C(CNC(=O)c1cccc2ncccc12)N1CCC(Oc2ccccc2F)CC1 (stereo not drawn) [Compound 22, N-{2-[4-(2-fluorophenoxy)piperidin-1-yl]-2-(4-methyl-1,3-thiazol-5-yl)ethyl}quinoline-5-carboxamide] | 30.2 nM | 355 nM | 93.44 | – |
| Cc1ncsc1C(CNC(=O)c1c(F)cccc1Cl)N1CCC(Oc2cc(F)cc(F)c2)CC1 (stereo not drawn) [Compound 11, 2-chloro-N-{2-[4-(3,5-difluorophenoxy)piperidin-1-yl]-2-(4-methyl-1,3-thiazol-5-yl)ethyl}-6-fluorobenzamide] | 30.6 nM | 594 nM | 59.41 | – |
| O=C(NCC(c1scnc1C(F)F)N1CCC(Oc2ccc(F)cc2)CC1)c1cccc2ncccc12 (stereo not drawn) [Compound 34, N-{2-[4-(difluoromethyl)-1,3-thiazol-5-yl]-2-[4-(4-fluorophenoxy)piperidin-1-yl]ethyl}quinoline-5-carboxamide] | 39.7 nM | 144 nM | – | 144 nM |
| Cc1ncsc1C(CNC(=O)c1c(F)cccc1Cl)N1CCC(OCc2cccc(F)c2)CC1 (stereo not drawn) [Compound 3, 2-chloro-6-fluoro-N-(2-{4-[(3-fluorophenyl)methoxy]piperidin-1-yl}-2-(4-methyl-1,3-thiazol-5-yl)ethyl)benzamide] | 5.95 nM | 373 nM | – | – |
| Cc1ncsc1C(CNC(=O)c1cccc2ncccc12)N1CCC(Oc2ccc(F)c(F)c2)CC1 (stereo not drawn) [Compound 24, N-{2-[4-(3,4-difluorophenoxy)piperidin-1-yl]-2-(4-methyl-1,3-thiazol-5-yl)ethyl}quinoline-5-carboxamide] | 57.9 nM | 201 nM | – | 201 nM |
| Cc1ncsc1C(CNC(=O)c1c(F)cccc1Cl)N1CCC(Oc2ccc(F)cc2)CC1 (stereo not drawn) [Compound 7, 2-chloro-6-fluoro-N-{2-[4-(4-fluorophenoxy)piperidin-1-yl]-2-(4-methyl-1,3-thiazol-5-yl)ethyl}benzamide] | 51.5 nM | 709 nM | – | – |
| Cc1ncsc1C(CNC(=O)c1cccc2ncccc12)N1CCC(OCc2ccc(F)cc2)CC1 (stereo not drawn) [Compound 13, N-(2-{4-[(4-fluorophenyl)methoxy]piperidin-1-yl}-2-(4-methyl-1,3-thiazol-5-yl)ethyl)quinoline-5-carboxamide] | 42.1 nM | 371 nM | – | – |
| Cc1ncsc1C(CNC(=O)c1c(F)cccc1Cl)N1CCC(Oc2cccc(F)c2)CC1 (stereo not drawn) [Compound 9, 2-chloro-6-fluoro-N-{2-[4-(3-fluorophenoxy)piperidin-1-yl]-2-(4-methyl-1,3-thiazol-5-yl)ethyl}benzamide] | 23.6 nM | 402 nM | – | – |
| Cc1ncsc1C(CNC(=O)c1c(F)cccc1Cl)N1CCC(Oc2ccccc2F)CC1 (stereo not drawn) [Compound 10, 2-chloro-6-fluoro-N-{2-[4-(2-fluorophenoxy)piperidin-1-yl]-2-(4-methyl-1,3-thiazol-5-yl)ethyl}benzamide] | 42.9 nM | 583 nM | – | – |
| Cc1ncsc1C(CNC(=O)c1cccc2ncccc12)N1CCC(Oc2ccc(F)cc2)CC1 (stereo not drawn) [Compound 19, N-{2-[4-(4-fluorophenoxy)piperidin-1-yl]-2-(4-methyl-1,3-thiazol-5-yl)ethyl}quinoline-5-carboxamide] | 23.9 nM | 582 nM | 71.12 | – |
| Cc1ncsc1C(CNC(=O)c1cccc2ncccc12)N1CCC(OCc2cccc(F)c2)CC1 (stereo not drawn) [Compound 15, N-(2-{4-[(3-fluorophenyl)methoxy]piperidin-1-yl}-2-(4-methyl-1,3-thiazol-5-yl)ethyl)quinoline-5-carboxamide] | 11.6 nM | 288 nM | – | – |
| Cc1ncsc1C(CNC(=O)c1cccc2ncccc12)N1CCC(OCc2cc(F)cc(F)c2)CC1 (stereo not drawn) [Compound 17, N-(2-{4-[(3,5-difluorophenyl)methoxy]piperidin-1-yl}-2-(4-methyl-1,3-thiazol-5-yl)ethyl)quinoline-5-carboxamide] | 32.9 nM | 432 nM | – | – |
| O=C(NCC(c1scnc1C(F)F)N1CCC(OCc2ccc(F)c(F)c2)CC1)c1cccc2ncccc12 (stereo not drawn) [Compound 33, N-{2-[4-(difluoromethyl)-1,3-thiazol-5-yl]-2-{4-[(3,4-difluorophenyl)methoxy]piperidin-1-yl}ethyl}quinoline-5-carboxamide] | 56.2 nM | 182 nM | – | – |
| Cc1ncsc1C(CNC(=O)c1c(F)cccc1Cl)N1CCC(OCc2ccc(F)cc2)CC1 (stereo not drawn) [Compound 1, 2-chloro-6-fluoro-N-(2-{4-[(4-fluorophenyl)methoxy]piperidin-1-yl)-2-(4-methyl-1,3-thiazol-5-yl}ethyl)benzamide] | 45 nM | 1040 nM | – | – |
| Cc1ncsc1C(CNC(=O)c1cccc2ncccc12)N1CCC(Oc2cccc(F)c2)CC1 (stereo not drawn) [Compound 21, N-{2-[4-(3-fluorophenoxy)piperidin-1-yl]-2-(4-methyl-1,3-thiazol-5-yl)ethyl}quinoline-5-carboxamide] | 26.4 nM | 268 nM | – | 268 nM |
